Assay results from article PMC10262914 (Bioorganic chemistry, 2022).
Values after ≈ are worked out from the molar mass of the structure shown. Values joined by “and” are separate entries in the source; they are usually repeats but may differ in a detail not shown here. Identical values can stand only once. Like-named read-outs stand apart in the source and are kept apart here.

Key:
[1] = test system: Mycobacterium tuberculosis H37Rv; assay: Alamar blue metabolic readout assay; assay type: cell-based; details: for GAS MIC: M. tuberculosis H37Rv, GAS media; for MIC: Mycobacterium tuberculosis, H37RV, read-out: GAS MIC
[2] = test system: VERO cells (kidney epithelial cells); assay: Toxicity against VERO cells; assay type: cell-based; details: Chlorocebus sabaeus, Vero, read-out: Vero IC50, toxicity against Vero cells
[3] = test system: Mycobacterium tuberculosis H37Rv; assay: Low oxygen recovery assay; assay type: cell-based; details: Mycobacterium tuberculosis, H37RV, read-out: LORA MIC
[4] = test system: Mycobacterium tuberculosis H37Rv; assay: Alamar blue metabolic readout assay; assay type: cell-based; details: for MIC: Mycobacterium tuberculosis, H37RV, read-out: 7H12 MIC; for 7H12 MIC: M. tuberculosis H37Rv, 7H12 media
in vitro [5] = details: rat, microsomes, pH 7.4
[6] = rat, microsomes
[7] = mouse, microsomes
in vitro [8] = details: dog, microsomes, pH 7.4
in vitro [9] = details: monkey, microsomes, pH 7.4
[10] = human, microsomes
[11] = dog, microsomes
in vitro [12] = details: mouse, microsomes, pH 7.4
[13] = microsomes
in vitro [14] = details: human, microsomes, pH 7.4
[15] = test system: Mycobacterium tuberculosis H37Rv; assay: Alamar blue assay, MIC stated as range over GAS and 7H12 media; assay type: cell-based; details: H37Rv

SMILES | GAS MIC [1] | MIC [1] | IC50 [2] | MIC [3] | MIC [4] | 7H12 MIC [4] | other results
[2H]c1c(C([2H])([2H])[2H])c([2H])n2c(C(=O)NCc3ccc(F)cc3)c(C)nc2c1[2H] [Compound 29, N-(4-Fluorobenzyl)-2-methyl-6-(methyl-d3)imidazo[1,2-a]pyridine-5,7,8-d3–3-carboxamide] | 0.0233 ± 0.0005 µM | 0.0233 µM (≈ 7.07 ng/mL) | > 10 µM | > 10 µM | 0.11 ± 0.0118 µM (≈ 33.4 ng/mL) |  | 
[2H]c1c(C([2H])([2H])[2H])c([2H])n2c(C(=O)NCc3ccc(C(F)(F)F)cc3)c(C)nc2c1[2H] [Compound 30, 2-Methyl-6-(methyl-d3)-N-(4-(trifluoromethyl)benzyl)imidazo [1,2-a]pyridine-5,7,8-d3-3-carboxamide] | 0.0091 ± 0.0058 µM | 0.0091 µM (≈ 3.22 ng/mL) | > 50 µM | > 10 µM | 0.0038 ± 0.0013 µM (≈ 1.34 ng/mL) |  | half-life at 2 μM (in vitro [5]): 50 min; CLint [6]: 28 mL/min/g protein; CLint [7]: 70 ml/min/g protein; half-life at 2 μM (in vitro [8]): 22 min; half-life at 2 μM (in vitro [9]): 12 min; CLint [10]: 26 ml/min/g protein; CLint [11]: 64 mL/min/g protein; half-life at 2 μM (in vitro [12]): 20 min; CLint [13]: 116 ml/min/g protein; half-life at 2 μM (in vitro [14]): 53 min
[2H]c1c(C([2H])([2H])[2H])c([2H])n2c(C(=O)NCc3ccc(Cl)cc3)c(C)nc2c1[2H] [Compound 31, N-(4-Chlorobenzyl)-2-methyl-6-(methyl-d3)imidazo[1,2-a]pyridine-5,7,8-d3-3-carboxamide] | 0.012 ± 0.0015 µM | 0.012 µM (≈ 3.84 ng/mL) | > 10 µM | 7.09 µM (≈ 2270 ng/mL) | 0.0231 µM (≈ 7.39 ng/mL) | 0.0231 ± 0.0071 µM | 
[2H]c1c(C([2H])([2H])[2H])c([2H])n2c(C(=O)NCc3ccc(S(F)(F)(F)(F)F)cc3)c(C)nc2c1[2H] [Compound 32, 2-Methyl-6-(methyl-d3)-N-(4-(pentafluoro-λ^6-sulfaneyl)benzyl) imidazo[1,2-a]pyridine-5,7,8-d3-3-carboxamide] | 0.0029 µM and 0.0029 ± 0.0005 µM |  |  |  |  | 0.0059 µM and 0.0059 ± 0.0003 µM | MIC (range over both media) [15]: 0.003 to 0.006 µM
[2H]c1c(C([2H])([2H])[2H])c([2H])n2c(C(=O)NCc3ccc(S(C)(=O)=O)cc3)c(C)nc2c1[2H] [Compound 33, 2-Methyl-6-(methyl-d3)-N-(4-(methylsulfonyl)benzyl)imidazo[1,2-a]pyridine-5,7,8-d3-3-carboxamide] |  | 0.174 ± 0.0269 µM (≈ 63.2 ng/mL) | > 10 µM | > 10 µM | 0.212 ± 0.0282 µM (≈ 77.1 ng/mL) |  | MIC (range over both media) [15]: 0.174 to 0.212 µM
[2H]c1c(C([2H])([2H])[2H])c([2H])n2c(C(=O)NCc3ccc(OC(F)(F)F)cc3)c(C)nc2c1[2H] [Compound 34, 2-Methyl-6-(methyl-d3)-N-(4-(trifluoromethoxy)benzyl)imidazo [1,2-a]pyridine-5,7,8-d3-3-carboxamide] | 0.0022 ± 0.0004 µM | 0.0022 µM (≈ 0.813 ng/mL) | > 50 µM | > 5 µM | 0.0055 µM (≈ 2.03 ng/mL) | 0.0055 ± 0.0018 µM | 
[2H]c1c(C([2H])([2H])[2H])c([2H])n2c(C(=O)NCc3ccc(OC)cc3)c(C)nc2c1[2H] [Compound 37, N-(4-Methoxybenzyl)-2-methyl-6-(methyl-d3)imidazo[1,2-a] pyridine-5,7,8-d3-3-carboxamide] | 0.0245 ± 0.0005 µM | 0.0245 µM (≈ 7.73 ng/mL) | > 10 µM | > 10 µM | 0.0354 µM (≈ 11.2 ng/mL) | 0.0354 ± 0.01 µM | 
[2H]c1c(C([2H])([2H])[2H])c([2H])n2c(C(=O)NCc3ccc(OCC)cc3)c(C)nc2c1[2H] [Compound 38, N-(4-Ethoxybenzyl)-2-methyl-6-(methyl-d3)imidazo[1,2-a] pyridine-5,7,8-d3-3-carboxamide] | 0.0092 ± 0.0013 µM | 0.0092 µM (≈ 3.03 ng/mL) |  |  | 0.0236 ± 0.0104 µM (≈ 7.77 ng/mL) |  | 
[2H]c1c(C([2H])([2H])[2H])c([2H])n2c(C(=O)NCc3ccc4c(c3)CCCO4)c(C)nc2c1[2H] [Compound 39, N-(Chroman-6-ylmethyl)-2-methyl-6-(methyl-d3)imidazo[1,2-a] pyridine-5,7,8-d3-3-carboxamide] | 0.0225 ± 0.0018 µM | 0.0225 µM (≈ 7.68 ng/mL) |  |  | 0.0072 µM (≈ 2.46 ng/mL) | 0.0072 ± 0.0004 µM | 
[2H]c1c(C([2H])([2H])[2H])c([2H])n2c(C(=O)NCc3ccc4c(c3)OCCO4)c(C)nc2c1[2H] [Compound 40, N-((2,3-Dihydrobenzo[b][1,4]dioxin-6-yl)methyl)-2-methyl-6-(methyl-d3)imidazo[1,2-a]pyridine-5,7,8-d3-3-carboxamide] | 0.0101 ± 0.001 µM | 0.0101 µM (≈ 3.47 ng/mL) |  |  | 0.0051 µM (≈ 1.75 ng/mL) | 0.0051 ± 0.0016 µM | 
